In article PMC12657321, “Pre-clinical evaluation of a potent and effective Pin1-degrading agent in pancreatic cancer” (Molecular Therapy Oncology, 2025):
Non-standard residues stand in square brackets, D forms with d. Residues, ends and D or L forms follow the SMILES beside them. *: point of attachment. Trp(6-Cl) = N[C@@H](Cc1c[nH]c2cc(Cl)ccc12)C(=O)O; Pip = O=C(O)[C@@H]1CCCCN1; ClAc = O=C(CCl)*

Experiments:
human Pin1 = biological target: T1, human Pin1 (Homo sapiens, UniProt Q13526); experiment: DELFIA displacement assay (biotinylated D-peptide / His-tagged Pin1); assay type: binding; settings: DELFIA displacement of biotinylated D-peptide from His-tagged Pin1; compound incubation 6 h; ± standard error of duplicate measurements
T1 construct: Residues 1–163 of human Pin1 were expressed with a thrombin cleavage site and a HisTag at the N-terminus; 6xHis (N); thrombin cleavage site (N); made in house; host or cells: E. coli
T1 sequence (Q13526 whole entry, the tested form may be a part): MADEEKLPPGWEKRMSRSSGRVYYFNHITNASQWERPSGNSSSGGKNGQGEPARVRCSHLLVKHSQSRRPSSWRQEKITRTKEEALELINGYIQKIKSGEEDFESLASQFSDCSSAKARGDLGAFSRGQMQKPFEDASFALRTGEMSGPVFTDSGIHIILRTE
Procedure: To assess the ability of our agents to bind and inhibit Pin1, we developed a robust biochemical assay based on the dissociation-enhanced lanthanide fluorescent immunoassay (DELFIA) platform. In our implementation, we used a biotinylated form of a known Pin1-binding peptide (D-peptide) to monitor the ability of test agents to inhibit the interaction between Pin1 and the D-peptide at various incubation times, as described previously.[32] […] In addition, as mentioned above and reported recently, we tested the ability of the agents to reduce Pin1 thermal stability in vitro by thermal denaturation measurements.[32] […] Pin1 unfolding causes a nonspecific interaction between the water-quenched fluorescent dye and the protein’s exposed hydrophobic residues, resulting in increased fluorescence. A shift in the thermal denaturation temperature between the free and bound protein is interpreted as a stabilization or destabilization event induced by the test ligand. […] To further assess whether these agents could be suitable for in vivo efficacy studies, we also performed stability assays in aqueous buffer and in plasma from various species (Table S2, Figure S2). We tested the stability of our agents in plasma from multiple mouse strains as well as in human plasma (Figure S2), given the peptide nature of the compounds. […]

NSG mice = experiment: Toxicity after repeated doses in NSG mice (CBC, observation); assay type: in vivo, mouse
Procedure: Figure 6 Toxicity of 164B8 after repeated doses in NSG mice Blood from mice treated as described in Figure 5 was collected and evaluated at the end of the experiment. Peripheral blood from mice was collected and analyzed by standard complete blood count (CBC). (A) Body weight, (B) white blood cell (WBC) counts (×10^9 cells/L), (C) hemoglobin (HGB) concentration (g/dL), and (D) platelet counts (×10^9 cells/L, log scale) in peripheral blood were determined. Data are presented as individual values with mean ± SD. Dotted horizontal lines indicate physiological reference ranges. Statistical comparisons were performed using one-way AVOVA; p values are shown in each panel.
Bioluminescent imaging (BLI) was performed one week post-inoculation. Based on imaging intensity, mice were re-grouped to ensure six animals per group. The PIN1 inhibitor was administered via intraperitoneal injection at doses of 30 mg/kg or 60 mg/kg, once daily, 5 days per week for 2 weeks. Tumor engraftment and growth were monitored by in vivo BLI. D-luciferin potassium salt was dissolved in sterile PBS to a final concentration of 16.6 mg/mL and mice were injected intraperitoneally with D-luciferin solution (0.139 g luciferin/kg body weight), then imaged 10–15 min after luciferin injection using an IVIS Spectrum Imaging System (Lago X) with identical exposure times and binning settings for all mice. Bioluminescence signal intensity was quantified as total flux (photons/s) within a region of interest (ROI) using Aura image software. BLI was performed once every week during the treatment. After 2 weeks of treatment, mice were euthanized 6 h after the final dose. Blood samples were collected via cardiac puncture, and normal peritoneum, intestine, and liver tissues were harvested and snap-frozen on dry ice.

Pin1 in BxPC3 cells = Pin1 in BxPC3 cells (Homo sapiens, UniProt Q13526); experiment: Pin1 recovery after degradation, capillary electrophoresis immunoassay, BxPC3; assay type: cell-based; parameters: endogenous in cells; host or cells: BxPC3; settings: BxPC3, 5 μM for 24 h, washed, serum-free media, 48 h after wash; two independent replicates
Pin1 in BxPC3 cells, sequence (Q13526 whole entry): as the sequence (Q13526 whole entry, the tested form may be a part) above
Procedure: To preliminarily assess the duration of Pin1 degradation in cancer cells, BxPC3 and KPC cells were treated with 164B8 for 24 h, washed, and then incubated in serum-free medium for various time points. Pin1 levels were then measured by capillary electrophoresis (Figure 3).
Figure 3 Western blot-like images of Pin1 recovery after degradation by 164B8 using capillary electrophoresis immunoassay (A) BxPC3 cells were pretreated with either 0.1% DMSO or 5 μM 164B8 for 24 h before washing and incubating in serum-free media to evaluate Pin1 recovery at 0, 6, 12, 24, and 48 h. (B) The experiment was performed in two independent replicates, and the results are plotted with the associated standard deviation. (C and D), as in (A) and (B), respectively, but testing the agents against the KPC cell line.
For capillary electrophoresis immunoassays (Figure 3), following protein quantification via the bicinchoninic acid (BCA) assay, the Jess Simple Western instrument (Protein Simple, Bio-Techne, Minneapolis, MN, USA) was utilized according to the manufacturer’s protocol for the 12–230 kDa separation module (SM-W001, Bio-Techne). […] The resulting data were analyzed using Compass for Simple Western software (v.6.3.0), utilizing the default high dynamic range 4.0 image settings and Gaussian peak fitting to obtain the area under each curve for quantification and analysis.

[1] = 30 mg/kg i.p. for 2 weeks, blood at end of experiment

Structure (SMILES): CNC(=O)[C@H](Cc1c[nH]c2ccccc12)NC(=O)[C@@H]1CCCCN1C(=O)[C@H](Cc1c[nH]c2cc(Cl)ccc12)NC(=O)CCl [164B8] (ClAc-[Trp(6-Cl)]-[Pip]-Trp-NHMe)
- IC50 (human Pin1): 4.65 ± 0.04 nM
- Tolerability of repeated dosing (NSG mice; 30 mg/kg i.p. for 2 weeks): generally well tolerated
- Anemia (hemoglobin, CBC) (NSG mice; [1]): mild anemia
- Thrombocytopenia (platelet counts, CBC) (NSG mice; [1]): moderate thrombocytopenia
- Mice euthanized because of ascites development (NSG mice; 60 mg/kg i.p. for 2 weeks, final time point, no obvious carcinomatosis): two of six mice
- Pin1 levels restored after exposure and wash-out (Pin1 in BxPC3 cells): approximately 50%
